Laboratory results from patent publication US20090215896A1, “REELIN DEFICIENCY OR DYSFUNCTION AND METHODS RELATED THERETO” (MARTEK BIOSCIENCES CORPORATION, priority 2004, published 2009).

Tested on: Reelin-deficient mice (B6C3Fe a/a-Reln<rl>/J)
Experiment: Reelin feeding study: number of offspring with reeler phenotype per diet group
Format: in vivo
Conditions: DHA to pregnant and lactating dam and to pups after weaning, vs DHA Deficient Diet; P=0.04
Excerpt: In the following experiment, the inventors tested whether LC-PUFA dietary enrichment (DHA) for mice lacking one or more normal reelin genes will correct Reelin histopathology/symptoms and will normalize the fatty acid profiles observed in Reelin-deficient mice. Specifically, the inventors evaluated whether dietary enrichment of long-chain polyunsaturated fatty acids (DHA) will correct or modulate Reelin histopathology/symptoms in Reelin-deficient mice.
Materials and Methods: The Reelin feeding study was sponsored by Martek Biosciences Corporation and initiated at Jackson Labs, Bar Harbor, Me. (Stock used: 300235 B6C3Fe a/a-Reln/J). Heterozygous females were mated with heterozygous males and received one of two experimental diets: a DHA DEFICIENT DIET (0% DHA by weight; 0.14% alpha linolenic acid by weight), or a DHA ADEQUATE DIET (0.462% DHA by weight, with 0.115% alpha linolenic acid by weight). The females continued to receive the specific diet throughout pregnancy and lactation. Homozygous, heterozygous, and wild-type pups born to pregnant females were placed on the same specific maternal diet at weaning. The number of reeler mice was recorded within each diet group. […] Pups were sacrificed at between 8 and 14 weeks of age and tissues were collected for fatty acid analysis.

SMILES: CCC=CCC=CCC=CCC=CCC=CCC=CCCC(=O)O [DHA, 4,7,10,13,16,19-docosahexaenoic acid]
- reduction of the incidence of male reeler animals: ~3 fold
